Reference: ChEMBL document CHEMBL5223062, “Tumor pyruvate kinase M2 modulators: a comprehensive account of activators and inhibitors as anticancer agents” (RSC Med Chem, 2021)
Each block holds one molecule with its values, some of them ahead of it.

Experiments:
Pyruvate kinase PKM [1] = target: T1, Pyruvate kinase PKM (Homo sapiens, UniProt P14618); assay: Activation of PKM2 (unknown origin)
Target sequence in this assay (P14618 whole entry): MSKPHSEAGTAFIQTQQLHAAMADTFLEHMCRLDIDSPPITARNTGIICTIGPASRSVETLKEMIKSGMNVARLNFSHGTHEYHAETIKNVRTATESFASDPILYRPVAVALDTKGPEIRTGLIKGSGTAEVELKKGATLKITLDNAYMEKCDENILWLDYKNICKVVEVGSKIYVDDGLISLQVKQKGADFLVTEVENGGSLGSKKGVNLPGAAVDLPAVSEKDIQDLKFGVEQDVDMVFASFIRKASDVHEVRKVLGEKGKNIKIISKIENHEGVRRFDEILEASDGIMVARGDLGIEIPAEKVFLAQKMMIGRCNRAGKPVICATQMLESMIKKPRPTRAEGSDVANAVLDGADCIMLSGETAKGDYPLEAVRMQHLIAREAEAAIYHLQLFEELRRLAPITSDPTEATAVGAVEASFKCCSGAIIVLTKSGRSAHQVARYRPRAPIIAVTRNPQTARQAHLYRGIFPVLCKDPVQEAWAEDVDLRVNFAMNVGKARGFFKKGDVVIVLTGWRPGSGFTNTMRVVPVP

Pyruvate kinase PKM [2] = target: T1, Pyruvate kinase PKM; assay: Inhibition of PKM1 (unknown origin) at 10 uM relative to control
Target sequence in this assay (P14618 2-531 limits assumed): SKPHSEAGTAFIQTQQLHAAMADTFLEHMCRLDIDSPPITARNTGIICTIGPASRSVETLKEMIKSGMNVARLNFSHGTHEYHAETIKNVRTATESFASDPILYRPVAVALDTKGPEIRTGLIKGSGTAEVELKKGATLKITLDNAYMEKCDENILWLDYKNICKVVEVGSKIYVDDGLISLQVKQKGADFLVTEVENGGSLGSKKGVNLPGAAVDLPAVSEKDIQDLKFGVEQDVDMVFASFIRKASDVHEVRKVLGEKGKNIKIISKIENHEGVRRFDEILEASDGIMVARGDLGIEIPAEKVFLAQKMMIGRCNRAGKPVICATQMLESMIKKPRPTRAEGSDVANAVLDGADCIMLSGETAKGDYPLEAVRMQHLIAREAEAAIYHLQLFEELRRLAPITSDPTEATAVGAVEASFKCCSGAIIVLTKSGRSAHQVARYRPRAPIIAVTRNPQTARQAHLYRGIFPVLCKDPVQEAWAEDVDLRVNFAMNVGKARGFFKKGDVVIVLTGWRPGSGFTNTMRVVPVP

Pyruvate kinase PKM [3] = target: T1, Pyruvate kinase PKM; assay: Inhibition of PKM2 (unknown origin) at 10 uM relative to control
Target sequence in this assay (P14618 2-531 limits assumed): as above

Pyruvate kinase PKM [4] = target: T1, Pyruvate kinase PKM; assay: Activation of PKM2 in human NCI-H1299 cells; format: cell-based
Target sequence in this assay (P14618 whole entry): as the sequence (P14618 whole entry) above

Pyruvate kinase PKM [5] = target: T1, Pyruvate kinase PKM; assay: Inhibition of PKM2 (unknown origin)
Target sequence in this assay (P14618 whole entry): as above

Pyruvate kinase PKM [6] = target: T1, Pyruvate kinase PKM; assay: Binding affinity to PKM2 (unknown origin) assessed as Gibbs free energy
Target sequence in this assay (P14618 2-531 limits assumed): as the sequence (P14618 2-531 limits assumed) above

HCT-116 = assay: Antiproliferative activity against human HCT-116 cells assessed as cell growth inhibition; format: functional, cell-based
HT-29 = assay: Antiproliferative activity against human HT-29 cells assessed as cell growth inhibition; format: functional, cell-based
DLD-1 = assay: Antiproliferative activity against human DLD-1 cells assessed as cell growth inhibition; format: functional, cell-based
HeLa = assay: Antiproliferative activity against human HeLa cells assessed as cell growth inhibition; format: functional, cell-based
NCI-H1299 [7] = assay: Antiproliferative activity against human NCI-H1299 cells assessed as cell growth inhibition; format: functional, cell-based
NCI-H1299 [8] = assay: Inhibition of glycolysis in human NCI-H1299 cells; format: functional
PC-3 = assay: Antiproliferative activity against human PC-3 cells assessed as cell growth inhibition; format: functional, cell-based

Structure (SMILES): C=C1C(=O)O[C@@H]2[C@H]3O[C@]3(C)CC/C=C(/C(=O)OCCOCCOC(=O)/C3=C/CC[C@@]4(C)O[C@@H]4[C@H]4OC(=O)C(=C)[C@@H]4CC3)CC[C@@H]12
AC50 (Pyruvate kinase PKM [1]): 15 nM

Structure (SMILES): CCCCCN1/C(=C\C=C\C2N(CCCC)c3cc(Cl)c(Cl)cc3N2CCCCC)N(CCCC)c2cc(Cl)c(Cl)cc21 (stereo not given)
inhibition (Pyruvate kinase PKM [2]): 31%
inhibition (Pyruvate kinase PKM [3]): 86%

Structure (SMILES): CC(C)=CCC1=C(O)C(=O)c2ccccc2C1=O [LAPACHOL]
IC50 (Pyruvate kinase PKM [5]): 1400 nM
deltaG (Pyruvate kinase PKM [6]): -9.34 kcal/mol

Structure (SMILES): COc1cc(/C=C/C(=O)O)cc(OC)c1O [SINAPINATE]
AC50 (Pyruvate kinase PKM [1]): 26200 nM

Structure (SMILES): O=c1c(O)c(-c2cc(O)c(O)c(O)c2)oc2cc(O)cc(O)c12 [MYRICETIN]
AC50 (Pyruvate kinase PKM [1]): 510 nM

Structure (SMILES): O=P(O)(O)OC[C@H]1O[C@](O)(COP(=O)(O)O)[C@@H](O)[C@@H]1O [FOSFRUCTOSE]
AC50 (Pyruvate kinase PKM [1]): 7000 nM

Structure (SMILES): O=C(O)/C=C/c1ccc(O)cc1 [COUMARIC ACID]
AC50 (Pyruvate kinase PKM [1]): 22200 nM

Structure (SMILES): C=C1C(=O)O[C@H]2C1CCC(C)=C1CC[C@@](C)(O)[C@@H]12 (stereo not given in full)
AC50 (Pyruvate kinase PKM [1]): 6 nM

Structure (SMILES): COc1ccc(-c2cc(=O)c3c(OC)c(OC)c(OC)c(OC)c3o2)cc1 [TANGERETIN]
AC50 (Pyruvate kinase PKM [1]): 950 nM

Second part, led by results:

AC50 (Pyruvate kinase PKM [1]): 30 nM
Structure (SMILES): Nc1cccc(S(=O)(=O)N2CCCN(S(=O)(=O)c3ccc4c(c3)OCCO4)CC2)c1

AC50 (Pyruvate kinase PKM [1]): 90 nM
Structure (SMILES): O=C1CCc2cc(S(=O)(=O)Nc3ccc(F)c(Cl)c3)c(F)cc2N1

inhibition (Pyruvate kinase PKM [2]): 36%
inhibition (Pyruvate kinase PKM [3]): 84%
Structure (SMILES): O=C(O)CN1C(=O)/C(=C/c2ccc(OC(=O)c3ccccc3I)cc2)SC1=S

AC50 (Pyruvate kinase PKM [4]): 60 nM
Structure (SMILES): Cc1cc2c(s1)c1cnn(Cc3ccccc3F)c(=O)c1n2C

AC50 (Pyruvate kinase PKM [1]): 10 nM
Structure (SMILES): O=C(c1cc(C(F)(F)F)n[nH]1)N(Cc1ccc(O)cc1F)CC1CCC1

AC50 (Pyruvate kinase PKM [1]): 10 nM
Structure (SMILES): Cn1cc(C(=O)c2cccc(Cl)c2Cl)cc1C(=O)NCCNC(=O)c1cc(C(=O)c2cccc(Cl)c2Cl)cn1C

AC50 (Pyruvate kinase PKM [1]): 10 nM
Structure (SMILES): COc1ccccc1N1CCN(C(=O)c2ccc(NS(=O)(=O)c3cccc4cccnc34)cc2)CC1

IC50 (Pyruvate kinase PKM [5]): 1420 nM
deltaG (Pyruvate kinase PKM [6]): -7.98 kcal/mol
Structure (SMILES): CC(C)=CC[C@@H](O)C1=CC(=O)c2c(O)ccc(O)c2C1=O [SHIKONIN]

IC50 (HCT-116): 27900 nM
IC50 (HT-29): 2000 nM
IC50 (DLD-1): 89500 nM
Structure (SMILES): O=c1cc(-c2ccc(O)cc2)oc2cc(O)cc(O)c12 [APIGENIN]

IC50 (HeLa): 2950 nM
IC50 (HCT-116): 2950 nM
IC50 (NCI-H1299 [7]): 2950 nM
Structure (SMILES): CC1=C(CSC(=S)N2CCCCC2)C(=O)c2ccccc2C1=O

AC50 (Pyruvate kinase PKM [4]): 70 nM
Structure (SMILES): COc1cccc(Cn2ncc3c4sc([S+](C)[O-])cc4n(C)c3c2=O)c1 (stereo not given)

inhibition (Pyruvate kinase PKM [2]): 34%
inhibition (Pyruvate kinase PKM [3]): 81%
Structure (SMILES): Cc1ccc(C)n1-c1ccc(O)c(C(=O)O)c1
inhibition (INH) (NCI-H1299 [8]): 18.5%

IC50 (HeLa): 460 nM
IC50 (HCT-116): 460 nM
AC50 (Pyruvate kinase PKM [1]): 3140 nM
IC50 (PC-3): 460 nM
Structure (SMILES): O=S(=O)(Nc1ccc(C2(O)CSC(=S)N2Cc2ccccc2)cc1)c1ccc2c(c1)OCCO2 (stereo not given)
